Source: patent US20130296266A1, “Pharmaceutical Composition of Complex Carbohydrates and Essential Oils and Methods of Using the Same” (Dermal Research Laboratories, Inc., priority 1999, published 2013)

What was measured:
polymyositis = assay: Mucosal treatment of polymyositis (Example 26); format: in vivo, human; conditions: 50 mg daily
Experimental: A person suffering from colon cancer had been unable to tolerate their colostomy and demanded that their surgeon reconnect their intestines. They refused chemotherapy but requested a preparation prepared according to this invention. They were given a formulation of sodium hyaluronate (Collaborative Laboratories, Inc) which was prepared with a mixture of molecular weights of hyaluronate (as in EXAMPLE 4). When they began taking the hyaluronate preparation, their CEA was 70.1. They have taken the hyaluronate at a dose of 10 mg three times per day mucosally and after 6 months of treatment their CEA has dropped to 4.1. They have taken no other treatments. This patient had also suffered from polymyositis for 15 years. […] After 6 months they have been able to reduce their Prednisone to 5 mg per day.

chronic eczema = assay: Topical treatment of chronic eczema (Example 16); format: in vivo, human; conditions: person
Description: A person suffered from chronic eczema—scaly and red areas on their neck and arms. They had tried all types of treatments, including cortisone with no effect. They were given a preparation containing a mixture of low and high molecular weight sodium hyaluronate (prepared as in EXAMPLE 4) mixed with 1% Wintergreen Oil, 1% Spearmint Oil, and 0.5% Peppermint Oil. They applied it for one week. […] They have not treated the area for 2 months and has noted no return of signs of eczema.

| SMILES | relief of polymyositis (polymyositis) | effect on eczema (chronic eczema) |
| --- | --- | --- |
| C[C@]12C=CC(=O)C=C1CC[C@@H]1[C@@H]2C(=O)C[C@@]2(C)[C@H]1CC[C@]2(O)C(=O)CO [Prednisone] | without much relief |  |
| C[C@]12CCC(=O)C=C1CC[C@@H]1[C@@H]2C(=O)C[C@@]2(C)[C@H]1CC[C@]2(O)C(=O)CO [cortisone] |  | no effect |
